From ChEMBL document CHEMBL1152228, “Using proton nuclear magnetic resonance to study the mode of ribonuclease A inhibition by competitive and noncompetitive inhibitors” (Bioorg Med Chem Lett, 2008)
pKi: −log10 of the molar value.

Target: T1, Ribonuclease pancreatic (Homo sapiens, UniProt P07998)
T1 sequence (P07998 whole entry): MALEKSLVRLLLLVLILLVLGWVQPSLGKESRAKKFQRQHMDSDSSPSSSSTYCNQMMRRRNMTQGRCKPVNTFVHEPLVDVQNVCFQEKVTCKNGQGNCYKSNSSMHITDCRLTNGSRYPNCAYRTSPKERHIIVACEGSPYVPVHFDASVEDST
Test: Inhibition of ribonucleolytic activity of RNase A by agarose gel based assay

pKi | SMILES
3.99 | O=C(O)C1CCN([C@H]2[C@H](O)[C@H](n3ccc(=O)[nH]c3=O)O[C@@H]2CO)CC1
3.92 | CCOC(=O)C1CCN([C@H]2[C@H](O)[C@H](n3ccc(=O)[nH]c3=O)O[C@@H]2CO)CC1
